Data on 1 compound can be found in patent US8026233B2, “P38 inhibitors and methods of use thereof” (Array BioPharma Inc., priority 2006, dated 2011).

Common to all, as to details: stated in words only
One data set in a line: bioavailability. The data set is classed as in vivo.
A further data set can be described thus: first pass metabolism.
For data set [1], the target named is p-glycoprotein (PGP) transporter (Homo sapiens, UniProt P08183). The experiment in a line: affinity for p-glycoprotein transporter.
The target in the next data set is hERG channel (Homo sapiens, UniProt Q12809). Kind of data set: activity in the hERG channel.
Sequence of hERG channel (Q12809 whole entry): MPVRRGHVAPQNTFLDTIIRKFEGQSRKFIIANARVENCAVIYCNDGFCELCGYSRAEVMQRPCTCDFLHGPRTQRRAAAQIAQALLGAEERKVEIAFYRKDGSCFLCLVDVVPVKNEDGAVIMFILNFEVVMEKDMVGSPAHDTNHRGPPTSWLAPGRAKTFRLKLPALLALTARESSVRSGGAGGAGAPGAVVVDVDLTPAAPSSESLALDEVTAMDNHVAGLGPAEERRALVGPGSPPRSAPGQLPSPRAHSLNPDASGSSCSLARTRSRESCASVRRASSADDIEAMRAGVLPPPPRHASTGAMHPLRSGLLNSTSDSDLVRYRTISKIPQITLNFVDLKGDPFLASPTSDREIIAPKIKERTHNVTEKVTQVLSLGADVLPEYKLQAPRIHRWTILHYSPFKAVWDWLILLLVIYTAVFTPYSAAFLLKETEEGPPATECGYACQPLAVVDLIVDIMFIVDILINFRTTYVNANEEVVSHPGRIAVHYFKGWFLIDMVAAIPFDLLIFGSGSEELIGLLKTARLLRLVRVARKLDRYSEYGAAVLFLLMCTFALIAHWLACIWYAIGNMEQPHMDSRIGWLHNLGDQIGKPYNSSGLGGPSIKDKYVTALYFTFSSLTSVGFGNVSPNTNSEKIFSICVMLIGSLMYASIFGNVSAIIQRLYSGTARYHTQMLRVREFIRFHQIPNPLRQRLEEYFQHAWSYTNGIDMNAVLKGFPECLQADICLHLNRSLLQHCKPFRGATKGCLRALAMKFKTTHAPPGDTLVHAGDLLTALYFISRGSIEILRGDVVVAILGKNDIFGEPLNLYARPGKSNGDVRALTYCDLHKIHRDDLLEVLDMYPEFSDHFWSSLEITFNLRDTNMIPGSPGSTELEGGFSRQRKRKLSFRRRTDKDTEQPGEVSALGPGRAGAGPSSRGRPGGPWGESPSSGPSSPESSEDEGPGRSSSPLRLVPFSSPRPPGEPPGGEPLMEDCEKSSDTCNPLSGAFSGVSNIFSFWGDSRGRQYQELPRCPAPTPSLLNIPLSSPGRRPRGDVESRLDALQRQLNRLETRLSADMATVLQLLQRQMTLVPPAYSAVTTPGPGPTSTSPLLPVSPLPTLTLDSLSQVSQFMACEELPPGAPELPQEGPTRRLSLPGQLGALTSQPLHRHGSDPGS

Sequence of p-glycoprotein (PGP) transporter (P08183 whole entry): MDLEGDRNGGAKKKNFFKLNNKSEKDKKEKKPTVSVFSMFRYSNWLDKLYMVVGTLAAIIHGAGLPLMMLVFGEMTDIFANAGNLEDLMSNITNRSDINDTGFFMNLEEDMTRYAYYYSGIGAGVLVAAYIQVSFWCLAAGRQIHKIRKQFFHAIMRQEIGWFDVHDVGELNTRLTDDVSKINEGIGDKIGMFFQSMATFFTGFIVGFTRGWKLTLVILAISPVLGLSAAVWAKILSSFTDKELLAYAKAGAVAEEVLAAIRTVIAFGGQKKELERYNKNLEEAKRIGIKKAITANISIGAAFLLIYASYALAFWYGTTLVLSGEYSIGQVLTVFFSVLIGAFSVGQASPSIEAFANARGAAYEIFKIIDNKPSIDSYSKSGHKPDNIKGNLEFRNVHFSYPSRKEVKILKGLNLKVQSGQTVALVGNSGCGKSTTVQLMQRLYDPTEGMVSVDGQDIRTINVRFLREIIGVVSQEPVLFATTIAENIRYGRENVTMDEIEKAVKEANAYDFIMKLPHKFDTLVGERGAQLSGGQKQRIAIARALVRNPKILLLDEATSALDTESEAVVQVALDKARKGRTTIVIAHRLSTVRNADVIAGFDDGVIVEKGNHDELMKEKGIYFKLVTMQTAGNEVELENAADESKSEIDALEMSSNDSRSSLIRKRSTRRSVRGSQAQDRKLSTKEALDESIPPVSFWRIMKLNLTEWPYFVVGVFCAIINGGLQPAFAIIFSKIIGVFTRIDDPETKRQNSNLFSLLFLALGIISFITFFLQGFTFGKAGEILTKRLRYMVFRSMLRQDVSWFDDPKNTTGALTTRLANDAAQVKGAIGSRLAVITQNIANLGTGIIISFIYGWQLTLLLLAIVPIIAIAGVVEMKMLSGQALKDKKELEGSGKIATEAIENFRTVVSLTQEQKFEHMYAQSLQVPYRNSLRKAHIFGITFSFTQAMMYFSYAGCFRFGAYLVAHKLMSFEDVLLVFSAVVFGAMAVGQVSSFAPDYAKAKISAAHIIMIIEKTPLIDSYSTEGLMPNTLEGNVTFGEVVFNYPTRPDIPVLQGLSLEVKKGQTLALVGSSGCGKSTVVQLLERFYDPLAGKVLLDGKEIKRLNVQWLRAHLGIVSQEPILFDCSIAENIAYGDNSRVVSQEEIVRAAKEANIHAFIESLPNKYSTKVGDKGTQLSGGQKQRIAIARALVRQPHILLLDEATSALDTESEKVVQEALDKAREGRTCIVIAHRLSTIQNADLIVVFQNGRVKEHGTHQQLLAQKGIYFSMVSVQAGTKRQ

Regarding `CC(C)(F)Cn1ncc2cc(Oc3ccc(F)cc3F)c(C(=O)N[C@H]3CCNC3=O)cc21` [Example 27, (S)-5-(2,4-difluorophenoxy)-1-(2-fluoro-2-methylpropyl)-N-(2-oxopyrrolidin-3-yl)-1H-indazole-6-carboxamide], the bioavailability result in “bioavailability” is on record as “relatively good”. For the same compound, the first pass metabolism entry in the data set “first pass metabolism” was “relatively low”. Also, the “affinity for p-glycoprotein (PGP) transporter (which affects cell permeability)” value in data set [1] is listed as “low affinity”. Besides, the “activity in the hERG channel (a predictor for cardiac side effects)” value on hERG channel was “low activity”.
